A short description of one series: Solubility measurement. The format is physicochemical.
The next series concerns 3-MPA-induced seizures. Briefly: Antagonism of 3-MPA-induced seizures. The format is in vivo. Particulars: male T/O mice; test drug 30 ng/kg p.o. 60 min before i.v. bolus of 3-MPA; dose of 3-MPA required to evoke a seizure response. On the procedure:
Antagonism of 3-MPA-Induced Seizures
Several animal seizure models are available for the screening and characterisation of anticonvulsant (antiepileptic) drugs. Most models employ a chemical convulsant to induce seizures and the anticonvulsant potencies of novel compounds are measured in terms of their ability to increase the dose of convulsant required to induce a seizure response (or to prolong the latency to seizure onset following a bolus dose of the convulsant). Most chemical convulsants work by blocking the neurotransmitter function of gamma-aminobutyric acid (GABA), the predominant inhibitory neurotransmitter in the mammalian brain. This can be achieved by blocking the postsynaptic action of GABA using pentylenetetrazol or bicuculline, or via a presynaptic action using a GABA synthesis inhibitor to decrease GABA release into the synapse. In this case, the inhibitor of glutamate decarboxylase (GAD), 3-mercaptopropionic acid (3-MPA), was used as the convulsant challenge agent.
Male albino T/O strain mice (obtained from Tuck) weighing 28-40 g were used in these studies. Animals were assigned randomly to treatment groups and vehicle or test drug (at a dose of […]) were administered p.o. to groups of 12 animals 60 min before the administration of a bolus dose of 3-MPA intravenously. Immediately following 3-MPA administration, each mouse was placed individually into a cage for observation. The seizure response of each animal was scored quantally as present or absent (response or non-response) during the 5 min period immediately following 3-MPA administration. A seizure response was defined as the onset of the initial clonic phase of the seizure (abrupt loss of righting reflex accompanied by vocalisation). The seizure threshold (in terms of mg/kg i.v. of 3-MPA required to evoke a seizure response) was determined in each treatment group by a sequential up/down method followed by modified probit analysis of the quantal data A range of doses of 3-MPA was prepared (12.5-200.0 mg/kg i.v.) increasing by a constant geometric factor […], which was found in pilot studies to generate suitable data for analysis by this method.
In these studies, 3-MPA was obtained from Sigma
Test compounds were prepared as solutions dissolved in 45% w/v aqueous 2-hydroxypropyl-β-cyclodextrin. 3-MPA was dissolved in isotonic saline and its pH adjusted to 6 using 1M sodium hydroxide solution. Drugs were administered in a dose volume of 10 ml/kg body weight.

The test system of series [1] is anxiety (elevated zero-maze). Briefly: Elevated zero-maze model of anxiolytic activity. In kind it is in vivo, rats. Conditions: dose of 30 mg/Kg, orally 1 hour prior to zero-maze testing. The text has this:
Measurement of Anxiolytic Activity in Mice Using the Elevated Zero-maze Model
The elevated “zero-maze” is a modification of the elevated plus-maze model of anxiety which incorporates both traditional and novel ethological measures in the analysis of drug effects (Shepherd, J. K., Grewal, S. S., Fletcher, A., Bill, D. J. and Dourish, C. T., Behavioural and pharmacological characterisation of the elevated “zero-maze” as an animal model of anxiety. Psychopharmacology, 1994, 116, 56-64).
Male Sprague-Dawley rats (Charles River) weighing 300-450 gm are used. Animals are group-housed (5 per cage; cage size: 40×40×20 cm) in a temperature-controlled environment (20±2° C.), under a 12 h light-dark cycle (lights on: 08:00 hours). Food and water are made freely available. Four hours prior to testing, animals are transferred to clean cages and moved to the testing room in order to habituate to the testing environment.
The maze is comprised of a black Perspex annular platform (105 cm diameter, 10 cm width) elevated to 65 cm above ground level, divided equally into four quadrants. […]
Rats are placed on a closed quadrant and a 5 min test period is recorded on video-tape. […] Animals are scored as being in the open area when all four paws were in an open quadrant, and in the closed area only when all four paws passed over the open/closed divide. […]

The values that follow come from patent US6514961B1, “Azetidinecarboxamide derivatives for the treatment of CNS disorders” (Vernalis Research Limited, priority 1998, dated 2003).

The structures appear in SMILES notation.

For the compound `C[C@@H](O)CNC(=O)N1CC(Oc2ccc(C(F)(F)F)cc2)C1` [Example 8], the “Aqueous solubility at 1 mg/ml” value in “Solubility measurement” is “Soluble”. Also, in the series with 3-MPA-induced seizures, the “SC = seizure threshold after treatment with test drug” value (from here on “SC = seizure threshold”) came out at 214.1 mg/kg i.v.
Turning to `CC(C)(O)CNC(=O)N1CC(Oc2ccc(Cl)cc2)C1` [Example 4, 3-(4-Chlorophenoxy)-N-(2-hydroxy-2-methylpropyl)azetidine-1-carboxamide], the “SC = seizure threshold” value with 3-MPA-induced seizures worked out at 36.9 mg/kg i.v.
In the case of `C[C@@H](O)CNC(=O)N1CC(Oc2ccc(Cl)cc2)C1` [Example 2, (R)-3-(4-Chlorophenoxy)-N-(2-hydroxypropyl)azetidine-1-carboxamide], the “Aqueous solubility at 1 mg/ml” value in the series “Solubility measurement” is recorded as “Soluble”. The “SC = seizure threshold” value in the series on 3-MPA-induced seizures was determined as 109.1 mg/kg i.v.
Take `C[C@@H](O)CNC(=O)N1CC(Oc2ccc(C(C)(C)C)cc2)C1` [Example 1, (R)-3-(4-tert-Butylphenoxy)-N-(2-hydroxypropyl)azetidine-1-carboxamide]: the melting point (in general, the temperature, or range, at which the solid turns liquid) fell in the range of 98 to 99 °C. The “SC = seizure threshold” value in the series on 3-MPA-induced seizures is 154.3 mg/kg i.v.
Take `CCCNC(=O)N1CC(Oc2ccc(Cl)cc2)C1` [3-(4-chlorophenoxy)-N-(propyl)azetidine-1-carboxamide]: in “Solubility measurement”, the “Aqueous solubility at 1 mg/ml” value is reported as “Not soluble”.
As for `C=CCNC(=O)N1CC(Oc2ccc(C(F)(F)F)cc2)C1` [3-(4-(trifluoromethyl)phenoxy)-N-(2-propenyl)azetidine-1-carboxamide], the “Aqueous solubility at 1 mg/ml” value in “Solubility measurement” is “Not soluble”.
Turning to `C[C@H](O)CNC(=O)N1CC(Oc2ccc(Cl)cc2)C1` [Example 3, (S)-3-(4-Chlorophenoxy)-N-(2-hydroxypropyl)azetidine-1-carboxamide], the “SC = seizure threshold” value in the series on 3-MPA-induced seizures is on record as 59.5 mg/kg i.v.
Take `C[C@@H](O)CNC(=O)N1CC(Oc2ccc(F)cc2)C1` [Example 5, (R)-3-(4-Fluorophenoxy)-N-(2-hydroxypropyl)azetidine-1-carboxamide]: the melting point lay within 112 to 114 °C. In the series with 3-MPA-induced seizures, the “SC = seizure threshold” value is 29.8 mg/kg i.v.
With `C[C@@H](O)CNC(=O)N1CC(Oc2ccc(Cl)c(Cl)c2)C1` [Example 6, (R)-3-(3,4-Dichlorophenoxy)-N-(2-hydroxypropyl)azetidine-1-carboxamide], the “SC = seizure threshold” value in the series with 3-MPA-induced seizures was found to be 59.5 mg/kg i.v.
With `NC(=O)N1CC(Oc2ccc(Cl)cc2)C1` [3-(4-chlorophenoxy)azetidine-1-carboxamide], in “Solubility measurement”, the “Aqueous solubility at 1 mg/ml” value is on record as “Not soluble”.
Take `C[C@@H](O)CNC(=O)N1CC(Oc2ccc(Cl)cc2)C1` (racemic) [Example 7, (R,S)-3-(4-Chlorophenoxy)-N-(2-hydroxypropyl)azetidine-1-carboximide]: in series [1], the “anxiolytic activity (increase in the frequency of head dips)” value is given as “effective”.
